Test results published in patent publication US20230159510A1, “NOVEL PRMT5 INHIBITORS” (AMGEN INC., priority 2020, published 2023).
Read-outs that look alike come from different tables or passages of the source.

Experiments:
HCT116 MTAP null cells = assay: HCT116 proliferation assay, MTAP null cells (CellTiter-Glo, 6 days); assay type: cell-based; details: read-out: Protif_ HCT116-MTAP null IC50
Outline: (§1)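 Readout is CellTiter-Glo luminescence after 6 days of drug exposure at 37 °C. Compounds tested as 8–9 point, 3-fold dilution series starting at 1 or 10 µM, versus DMSO only, on cells in RPMI 1640 with 10% FBS.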

HCT116 WT cells = assay: HCT116 proliferation assay, WT cells (CellTiter-Glo, 6 days); assay type: cell-based; details: Homo sapiens, HCT-116, 144 h, read-out: Prolif_HCT116-WT IC50
Outline: as §1

PRMT5/MEP50 = PRMT5/MEP50 (Homo sapiens, UniProt O14744); assay: MTase-Glo methyl transferase assay, Method A (Histone H4 peptide, 1 µM MTA, 24 h pre-incubation); assay type: biochemical; parameters: made in house; details: read-out: PRMT5 MTase Glo Ki (nM, Meth. A)
Chain of PRMT5/MEP50 (O14744 whole entry): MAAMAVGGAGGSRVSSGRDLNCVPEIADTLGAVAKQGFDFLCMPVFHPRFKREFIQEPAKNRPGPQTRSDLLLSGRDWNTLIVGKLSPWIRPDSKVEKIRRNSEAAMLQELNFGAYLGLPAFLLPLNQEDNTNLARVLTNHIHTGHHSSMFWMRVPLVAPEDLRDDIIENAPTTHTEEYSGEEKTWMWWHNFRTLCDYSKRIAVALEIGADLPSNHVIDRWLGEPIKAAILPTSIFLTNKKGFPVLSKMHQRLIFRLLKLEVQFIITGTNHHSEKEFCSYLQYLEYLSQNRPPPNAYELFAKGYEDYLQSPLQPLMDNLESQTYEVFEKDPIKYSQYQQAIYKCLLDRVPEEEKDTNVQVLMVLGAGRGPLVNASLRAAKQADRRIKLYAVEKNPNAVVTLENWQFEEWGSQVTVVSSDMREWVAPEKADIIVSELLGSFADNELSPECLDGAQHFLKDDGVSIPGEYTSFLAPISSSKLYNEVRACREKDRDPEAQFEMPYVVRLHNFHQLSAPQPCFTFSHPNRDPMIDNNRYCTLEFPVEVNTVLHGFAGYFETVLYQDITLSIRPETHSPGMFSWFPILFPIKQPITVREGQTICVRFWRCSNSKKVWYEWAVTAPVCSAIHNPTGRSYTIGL
Chain of PRMT5/MEP50 (Q9BQA1 whole entry partner): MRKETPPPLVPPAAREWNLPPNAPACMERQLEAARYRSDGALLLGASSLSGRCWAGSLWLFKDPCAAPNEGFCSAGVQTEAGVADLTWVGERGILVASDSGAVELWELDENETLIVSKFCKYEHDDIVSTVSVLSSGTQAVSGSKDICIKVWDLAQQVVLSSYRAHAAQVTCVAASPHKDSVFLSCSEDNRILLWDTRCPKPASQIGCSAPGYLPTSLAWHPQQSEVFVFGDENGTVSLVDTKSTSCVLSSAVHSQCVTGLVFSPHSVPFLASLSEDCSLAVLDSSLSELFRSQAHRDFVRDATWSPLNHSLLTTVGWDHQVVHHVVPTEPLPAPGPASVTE
Outline: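 Luminescent SAH detection (MTase-Glo) after a 2 h room-temperature methylation of 1 µM biotinylated H4 (1-21) peptide by 10 nM PRMT5/MEP50 with 5 µM SAM, in 50 mM Tris pH 8.0.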

Row | Compound | IC50 (HCT116 MTAP null cells; HCT116-MTAP null, 144 h) [nM] | IC50 (HCT116 WT cells) [µM] | Ki (PRMT5/MEP50) [nM] | IC50 (HCT116 MTAP null cells; 144 h) [nM] | IC50 (HCT116 MTAP null cells) [nM]
1 | Cc1cc2cc(C(=O)N(Cc3cc(C#N)ccn3)[C@H](C)c3ncccn3)ccc2nc1N [Example 513, 2-amino-N-((4-cyano-2-pyridinyl)methyl)-3-methyl-N-((1R)-1-(2-pyrimidinyl)ethyl)-6-quinolinecarboxamide] | 552 | > 10 | 2.61 | – | –
2 | COC(=O)N1CC=C(c2ccc(CN(C(=O)c3ccc4nc(N)c(C)cc4c3)[C@H](C)c3ncccn3)nc2)CC1 [Example 551, methyl 6-((((2-amino-3-methyl-6-quinolinyl)carbonyl)((1R)-1-(2-pyrimidinyl)ethyl)amino)methyl)-3’,6′-dihydro[3,4′-bipyridine]-1′(2′H)-carboxylate] | 21 | 0.634 | 0.14 | – | –
3 | Cc1cc2cc(C(=O)N(Cc3ccc(C(F)F)cn3)CC(C)C)ccc2nc1N [Example 324, 2-amino-N-((5-(difluoromethyl)-2-pyridinyl)methyl)-3-methyl-N-(2-methylpropyl)-6-quinolinecarboxamide] | 849 | > 10 | 2 | – | –
4 | Cc1cc2cc(C(=O)N(Cc3ccc(C(F)(F)F)cn3)[C@H](C)c3ncn(C)n3)ccc2nc1N (single isomer, unassigned) [Example 496] | 23 | 0.462 | 0.17 | – | –
5 | Cc1cc2cc(C(=O)N(Cc3ccc(C#N)cn3)[C@H](C)c3ncccn3)c(F)cc2nc1N [Example 404, 2-amino-N-((5-cyano-2-pyridinyl)methyl)-7-fluoro-3-methyl-N-((1R)-1-(2-pyrimidinyl)ethyl)-6-quinolinecarboxamide] | 90 | 3.16 | 1.68 | – | –
6 | COC(=O)c1ccc(CN(Cc2ncccc2F)C(=O)c2ccc3nc(N)c(C)cc3c2)nc1 [Example 331, methyl 6-((((2-amino-3-methyl-6-quinolinyl)carbonyl)((3-fluoro-2-pyridinyl)methyl)amino)methyl)-3-pyridinecarboxylate] | 490 | > 10 | 0.13 | – | –
7 | Cc1cc2cc(C(=O)N(Cc3ccc(C(F)(F)F)cn3)Cc3ncc(F)cn3)ccc2nc1N [Example 341, 2-amino-N-((5-fluoro-2-pyrimidinyl)methyl)-3-methyl-N-((5-(trifluoromethyl)-2-pyridinyl)methyl)-6-quinolinecarboxamide] | 437 | > 10 | 0.52 | – | –
8 | Cc1cc2cc(C(=O)N(Cc3ccc(C#N)cn3)[C@H](C)c3ncccn3)ncc2nc1N [Example 418, 2-amino-N-((5-cyano-2-pyridinyl)methyl)-3-methyl-N-((1R)-1-(2-pyrimidinyl)ethyl)-1,7-naphthyridine-6-carboxamide] | 500 | > 10 | 0.27 | – | –
9 | Cc1cc2cc(C(=O)N(Cc3cccnc3)Cc3ccc(C(F)(F)F)cn3)ccc2nc1N [Example 301, 2-amino-3-methyl-N-(3-pyridinylmethyl)-N-((5-(trifluoromethyl)-2-pyridinyl)methyl)-6-quinolinecarboxamide] | 872 | > 10 | 1.22 | – | –
10 | Cc1cc2cc(C(=O)N(Cc3ccc(Br)cn3)[C@H](C)c3ncccc3F)ccc2nc1N [Example 400, 2-amino-N-((5-bromo-2-pyridinyl)methyl)-N-((1R)-1-(3-fluoro-2-pyridinyl)ethyl)-3-methyl-6-quinolinecarboxamide] | 41 | 0.96 | 0.05 | – | –
11 | Cc1cc2cc(C(=O)N(Cc3ccc(C#N)cn3)[C@H](C)c3ncccn3)ccc2nc1N [Example 502, (R)-2-amino-N-((5-cyanopyridin-2-yl)methyl)-3-methyl-N-(1-(pyrimidin-2-yl)ethyl)quinoline-6-carboxamide] | 109 | 3.26 | 0.06 | – | –
12 | Cc1cc([C@@H](C)N(Cc2ccc(C(F)(F)F)cn2)C(=O)c2ccc3nc(N)c(C)cc3c2)no1 [Example 392, 2-amino-3-methyl-N-((1R)-1-(5-methyl-1,2-oxazol-3-yl)ethyl)-N-((5-(trifluoromethyl)-2-pyridinyl)methyl)-6-quinolinecarboxamide] | 193 | 6.86 | 0.5 | – | –
13 | Cc1cc2cc(C(=O)N(Cc3ccc(C(F)(F)F)cn3)CC3CC3)c(F)cc2nc1N [Example 311, 2-amino-N-(cyclopropylmethyl)-7-fluoro-3-methyl-N-((5-(trifluoromethyl)-2-pyridinyl)methyl)-6-quinolinecarboxamide] | 163 | 2.84 | 0.21 | – | –
14 | Cc1cc2cc(C(=O)N(Cc3ccc(C(F)(F)F)cn3)[C@H](C)c3ncccn3)cnc2nc1N (single isomer, unassigned) [Example 486] | 123 | 3.83 | 0.42 | – | –
15 | Cc1cc2cc(C(=O)N(Cc3ccc(C(F)(F)F)cn3)Cc3ncc(F)cc3F)ccc2nc1N [Example 384, 2-amino-N-((3,5-difluoro-2-pyridinyl)methyl)-3-methyl-N-((5-(trifluoromethyl)-2-pyridinyl)methyl)-6-quinolinecarboxamide] | 177 | 5.1 | 0.01 | – | –
16 | Cc1cc2cc(C(=O)N(Cc3ccc(C(F)(F)F)cn3)[C@@H]3CCCn4ncnc43)ccc2nc1N (single isomer, unassigned) [Example 464] | 71 | 1.51 | 0.1 | – | –
17 | Cc1cc2cc(C(=O)N(Cc3ccc(C(F)(F)F)cn3)[C@@H](c3ncccn3)C3CC3)ccc2nc1N (single isomer, unassigned) [Example 452] | 22 | 0.48 | 0.06 | – | –
18 | COc1ccc(CN(C(=O)c2cc3cc(C)c(N)nc3cc2F)[C@@H](C)c2ncccn2)nn1 (single isomer, unassigned) [Example 480] | 369 | 1.46 | 1.49 | – | –
19 | C[C@H](c1nccs1)N(Cc1ccc(Br)nn1)C(=O)c1ccc2nc(N)c(Br)cc2c1 [Example 435, 2-amino-3-bromo-N-((6-bromo-3-pyridazinyl)methyl)-N-((1R)-1-(1,3-thiazol-2-yl)ethyl)-6-quinolinecarboxamide] | 66 | 3.28 | 0.08 | – | –
20 | Cc1cc2cc(C(=O)N(Cc3ccc(C(F)(F)F)cn3)Cc3ncccc3C)ccc2nc1N [Example 343, 2-amino-3-methyl-N-((3-methyl-2-pyridinyl)methyl)-N-((5-(trifluoromethyl)-2-pyridinyl)methyl)-6-quinolinecarboxamide] | 104 | 2.83 | 0.66 | – | –
21 | Cc1cc2cc(C(=O)N(Cc3ccc(OC4COC4)cn3)[C@H](C)c3ncccn3)ccc2nc1N [Example 427, 2-amino-3-methyl-N-((5-(3-oxetanyloxy)-2-pyridinyl)methyl)-N-((1R)-1-(2-pyrimidinyl)ethyl)-6-quinolinecarboxamide] | 151 | 4.25 | 0.1 | – | –
22 | Cc1cc2cc(C(=O)N(Cc3ccc(C(F)(F)F)cn3)[C@@H]3CCCc4cn[nH]c43)ccc2nc1N (single isomer, unassigned) [Example 527] | 10 | 0.142 | 0.05 | – | –
23 | Cc1cc2cc(C(=O)N(Cc3ccc(N(C)C)nn3)[C@H](C)c3ncccn3)ccc2nc1N [Example 554, (R)-2-amino-N-((6-(dimethylamino)pyridazin-3-yl)methyl)-3-methyl-N-(1-(pyrimidin-2-yl)ethyl)quinoline-6-carboxamide] | 122 | 4.28 | 0.07 | – | –
24 | Cc1cc2cc(C(=O)N(Cc3ccc(C(F)(F)F)cn3)[C@@H]3CCCC[C@H]3O)ccc2nc1N [Example 361, 2-amino-N-((1R,2R)-2-hydroxycyclohexyl)-3-methyl-N-((5-(trifluoromethyl)-2-pyridinyl)methyl)-6-quinolinecarboxamide] | 116 | 3.22 | 2.1 | – | –
25 | Cc1cc2cc(C(=O)N(Cc3ccc(C(F)(F)F)cn3)Cc3ncccc3Cl)ccc2nc1N [Example 303, 2-amino-N-((3-chloro-2-pyridinyl)methyl)-3-methyl-N-((5-(trifluoromethyl)-2-pyridinyl)methyl)-6-quinolinecarboxamide] | 32 | 0.6 | 0.01 | – | –
26 | C#Cc1cc2cc(C(=O)N(Cc3ccc(C(F)(F)F)cn3)[C@H](C)c3ncccc3F)cnc2nc1N [Example 543, (R)-7-amino-6-ethynyl-N-(1-(3-fluoropyridin-2-yl)ethyl)-N-((5-(trifluoromethyl)pyridin-2-yl)methyl)-1,8-naphthyridine-3-carboxamide] | 568 | > 10 | 0.59 | – | –
27 | Cc1cc2cc(C(=O)N(Cc3ccc(C(F)(F)F)cn3)C[C@H](C)C(F)(F)F)ccc2nc1N [Example 458, 2-amino-3-methyl-N-((2S)-3,3,3-trifluoro-2-methylpropyl)-N-((5-(trifluoromethyl)-2-pyridinyl)methyl)-6-quinolinecarboxamide] | – | > 10 | 0.84 | 590 | –
28 | Cc1cc2cc(C(=O)N(Cc3ccc(C(F)(F)F)cn3)Cc3ccnc4[nH]ccc34)cnc2nc1N [Example 368, N-((1H-pyrrolo[2,3-b]pyridin-4-yl)methyl)-7-amino-6-methyl-N-((5-(trifluoromethyl)pyridin-2-yl)methyl)-1,8-naphthyridine-3-carboxamide] | – | 7.66 | 0.14 | – | 411
